Measured values published in US11229642B2, “Composition and method for reducing neutropenia” (BeyondSpring Pharmaceuticals, Inc., priority 2016, dated 2022).
Where two headings read alike, the source gives them in different places.

Columns and labels:
[1] = test system: cis-platin induced neutropenia; type: in vivo, Male Sprague-Dawley rats
Source text: Male Sprague-Dawley rats were first treated with cis-platin or vehicle saline (control). […] Each test group included 6 rats.
The ANC decreased following cisplatin administration.

[2] = test system: cyclophosphamide-induced neutropenia; conditions: for ANCs (Mean ± SD): Day −1 (pre-dose baseline), N = 5 rats per group
Description: The control sample contained 7.1% Tween 80 (v/v), 25.5% Propylene glycol (v/v), and 67.4% D5W (5% dextrose in water) (v/v). Each test group included 15 rats.
Blood collection was performed for absolute neutrophil counts in blood samples collected at Day −1 (pre-dose), Day 2 (24 h), Day 3 (48 h), Day 10 (9 days) and Day 15 (14 days).
These were expressed as a percentage of the control level on Day 3.

[3] = test system: doxorubicin induced neutropenia; experiment: Example 3: ANC in doxorubicin induced neutropenia; type: in vivo, Male Sprague-Dawley rats; conditions: for ANC level expressed as Percent Naïve Group (% Naïve): doxorubicin 3 mg/kg, plinabulin 7.5 mg/kg in the combination
Description: Male Sprague-Dawley rats were first treated with doxorubicin or vehicle saline (control). […] Each test group included 6 rats. The doxorubicin was administered intravenously, and plinabulin was administered through intraperitoneal injection.

[4] = test system: neutropenia caused by cyclophosphamide; experiment: Example 1: neutrophil count after cyclophosphamide, plinabulin or the combination; type: in vivo, male Sprague-Dawley rats; conditions: all rats, Days −1, 2, 3 and 10; FIG. 3
Description: Fifteen rats each were placed in 4 treatment groups according to Table 1. The indicated doses were administered through intraperitoneal injection on Day 1 with Administration 2 being given 1 hour following Administration 1.
D5W is 5% dextrose in water for injection. For groups that included administration of plinabulin, plinabulin is first dissolved in the Tween 80-PG mixture and then diluted with D5W.
The animals were randomized based on body weight and assigned to groups. Before the initiation of dosing, any assigned animals considered unsuitable for use in the study were replaced by alternate animals obtained from the same shipment and maintained under the same environmental conditions.
Blood was collected by jugular venipuncture for Day −1 bleeds and terminally via abdominal aorta under anesthesia for Day 2 (5 rats per Group i.e. total 20 rats), Day 3 (5 rats per Group i.e. total 20 rats) and Day 10 (5 rats per Group i.e. total 20 rats). After collection, the samples were tested for total and differential cell counts. Five rats per group were terminated on Days 2, 3, and 10. Animals were anesthetized with isoflurane (1-5%) and ˜1-2.0 mL of blood will be collected via abdominal aorta. After collection, 0.3 mL was transferred to EDTA tubes and analyzed for total and differential cell counts. […]

[5] = test system: topotecan induced neutropenia; experiment: Example 5: ANC in topotecan induced neutropenia; type: in vivo, adult male Sprague-Dawley rats
Description: Topotecan (0.25 or 1.0 mg/kg IV) was administered to adult male Sprague-Dawley rats on Days 1, 3 and 5. Topotecan was administered by intravenous infusion over a period of 30 minutes using a syringe infusion pump and sterile disposable syringes at a dose volume of 10 mL/kg.
Plinabulin (3.75 mg/kg, IP) was dosed 1 hour post topotecan following each topotecan dose. Plinabulin (7.5 mg/kg IP) was dosed 1 hour after the topotecan dose (0.25 mg/kg) on Day 1 only.
Blood collection was performed Days −2, 0, 2, 4, 6, 7, 8, 9, 10 for the pilot and Days −2, 0, 2, 3, 4, 5, 6, 7, 8, 10, 15 for the main study. Blood samples collected on day 3 were analyzed for total and differential blood cell counts.

Structure (SMILES): N.N.[Cl][Pt][Cl] [Cisplatin, reference compound]
- ANCs ([1]; Day 3 (cisplatin ANC nadir), cisplatin 6.5 mg/kg alone): 0.93 ± 0.28 10^3 Cells/μL
- ANCs ([1]; Day −1 (predose), cisplatin 6.5 mg/kg group): 2.03 ± 0.81 10^3 Cells/μL
- Day 3 ANCs Expressed as Percent of Baseline (Day −1) ([1]; cisplatin 6.5 mg/kg alone): 45.8%

Structure (SMILES): O=P1(N(CCCl)CCCl)NCCCO1 (centres unmarked) [Cyclophosphamide]
- ANCs (Mean ± SD) [2]: 1.68 ± 0.19 10^3 Cells/μL
- induction of neutropenia ([2]; single intra-peritoneal injection of cyclophosphamide): induced neutropenia in rats at around 48 h

Structure (SMILES): COc1cccc2c1C(=O)c1c(O)c3c(c(O)c1C2=O)C[C@@](O)(C(=O)CO)C[C@@H]3O[C@H]1C[C@H](N)[C@H](O)[C@H](C)O1 [Doxorubicin]
- time after administration at which neutropenia effect of doxorubicin was seen ([3]; ANC as percentage of naïve animals, severity increased until Day 5): ≤ 24 h
- ANC level, Mean ([3]; Day 2, doxorubicin 3.0 mg/kg IV alone): 4.37 ± 10^3/μL
- ANC level expressed as Percent Naïve Group (% Naïve) ([3]; Day 2): 52.6%
- ANC level, Mean ([3]; Day 3, doxorubicin 3.0 mg/kg IV alone): 0.88 ± 10^3/μL
- ANC level expressed as Percent Naïve Group (% Naïve) ([3]; Day 3): 50.9%
- ANC level, Mean ([3]; Day 4, doxorubicin 3.0 mg/kg IV alone): 1.02 ± 10^3/μL
- ANC level expressed as Percent Naïve Group (% Naïve) ([3]; Day 4): 30.8%
- ANC level, Mean ([3]; Day 5, doxorubicin 3.0 mg/kg IV alone): 0.65 ± 10^3/μL
- ANC level expressed as Percent Naïve Group (% Naïve) ([3]; Day 5): 19.2%
- ANC level, Mean ([3]; Day 8, doxorubicin 3.0 mg/kg IV alone): 0.97 ± 10^3/μL
- ANC level expressed as Percent Naïve Group (% Naïve) ([3]; Day 8): 32.3%
- ANC level, Mean ([3]; Day −1 (pre-dose), doxorubicin 3.0 mg/kg IV group): 1.79 ± 10^3/μL
- induction of neutropenia ([3]; doxorubicin 3.0 mg/kg): induced a long-lasting neutropenia
- duration of ANC decrease following doxorubicin administration ([3]; doxorubicin 3 mg/kg IV single dose): at least 8 days

Structure (SMILES): CC(C)(C)c1[nH]cnc1/C=c1\[nH]c(=O)/c(=C/c2ccccc2)[nH]c1=O [Plinabulin, (3Z,6Z)-3-Benzylidene-6-{[5-(2-methyl-2-propanyl)-1H-imidazol-4-yl]methylene}-2,5-piperazinedione]
- ANCs ([1]; Day 3, plinabulin 4.9 mg/kg alone): 2.42 ± 0.73 10^3 Cells/μL
- ANCs ([1]; Day 3, plinabulin 7.5 mg/kg alone): 4.55 ± 1.41 10^3 Cells/μL
- ANCs ([1]; Day −1 (predose), plinabulin 4.9 mg/kg group): 1.98 ± 0.47 10^3 Cells/μL
- ANCs ([1]; Day −1 (predose), plinabulin 7.5 mg/kg group): 2.12 ± 0.25 10^3 Cells/μL
- ANC levels vs predose levels, plinabulin one hour post cisplatin ([1]; plinabulin 2.3 mg/kg, 4.9 mg/kg and 7.5 mg/kg one hour post cisplatin, Day 3): not significantly different from the predose levels
- Day 3 ANCs Expressed as Percent of Baseline (Day −1) ([1]; plinabulin 4.9 mg/kg alone): 122.2%
- change of ANC levels by plinabulin alone ([1]; plinabulin 4.9 mg/kg alone, Day 3 vs predose): did not change ANC levels
- Day 3 ANCs Expressed as Percent of Baseline (Day −1) ([1]; plinabulin 7.5 mg/kg alone): 214.6%
- ANCs (Mean ± SD) [2]: 1.69 ± 0.21 10^3 Cells/μL
- reduction of neutropenia caused by cyclophosphamide, time course [4]: reduced the neutropenia caused by cyclophosphamide
- ANC level, Mean ([3]; Day 2, plinabulin 7.5 mg/kg IP alone): 5.24 ± 10^3/μL
- ANC level, Mean ([3]; Day 3, plinabulin 7.5 mg/kg IP alone): 1.98 ± 10^3/μL
- ANC level, Mean ([3]; Day 4, plinabulin 7.5 mg/kg IP alone): 2.17 ± 10^3/μL
- ANC level, Mean ([3]; Day 5, plinabulin 7.5 mg/kg IP alone): 2.13 ± 10^3/μL
- ANC level, Mean ([3]; Day 8, plinabulin 7.5 mg/kg IP alone): 3.18 ± 10^3/μL
- ANC level, Mean ([3]; Day −1 (pre-dose), plinabulin 7.5 mg/kg IP group): 2.02 ± 10^3/μL
- ANC in plinabulin only treated rats vs naïve animals ([3]; plinabulin 7.5 mg/kg IP alone, all time points): not statistically different from naïve animals at any time point
- effect of plinabulin on doxorubicin effect (ANC), Days 2 and 3 ([3]; plinabulin 7.5 mg/kg, Days 2 and 3 post dose): significantly diminished the effect of doxorubicin
- effect of plinabulin on doxorubicin-induced neutropenia, days 5 and 8 ([3]; plinabulin 7.5 mg/kg, days 5 and 8): ameliorated the doxorubicin-induced neutropenia to a lesser degree
- effect of plinabulin on doxorubicin-induced neutropenia ([3]; plinabulin 3.5 and 7.5 mg/kg IP, one hour after doxorubicin): significantly reduced the doxorubicin-induced neutropenia
- effect of plinabulin on topotecan-induced neutropenia ([5]; plinabulin 3.75 and 7.5 mg/kg IP, one hour after topotecan): significantly reduced the topotecan-induced neutropenia

Structure (SMILES): CC[C@@]1(O)C(=O)OCc2c1cc1n(c2=O)Cc2cc3c(CN(C)C)c(O)ccc3nc2-1 [topotecan, reference compound]
- induction of neutropenia ([5]; topotecan 1 or 0.25 mg/kg IV on Days 1, 3 and 5, FIGS. 11A, 11B): induced a long-lasting neutropenia
